{"source": "ChEMBL document CHEMBL3046061", "about": "“Quinolinedione nucleus as a novel scaffold for A1 and A2A adenosine receptor antagonists” (Med Chem Res, 2008)", "data": [{"tested_on": "cAMP phosphodiesterase 3 (Cavia porcellus)", "assay": "Inhibition of Cavia porcellus (guinea pig) PDE3 isolated from heart using [3H]cAMP as substrate at 1 uM by two-step method", "units": {"inhibition": "%"}, "values": [{"smiles": "O=C1CC(c2ccccc2)Cc2[nH]c(=O)c(C(=O)c3ccccc3)cc21", "note": "(centres undefined)", "inhibition": 0}, {"smiles": "CC(C)(C)C(=O)c1cc2c([nH]c1=O)CC(c1ccccc1)CC2=O", "note": "(centres undefined)", "inhibition": 0}, {"smiles": "O=C(c1ccccc1)c1cc(C(=O)c2ccccc2)c(=O)[nH]c1-c1ccccc1", "inhibition": 0}, {"smiles": "O=C1CC(c2ccccc2)Cc2[nH]c(=O)c(S(=O)(=O)c3ccccc3)cc21", "note": "(centres undefined)", "inhibition": 0}, {"smiles": "CC(C)(C)C(=O)c1cc2c([nH]c1=O)CCCC2=O", "inhibition": 0}]}, {"biological_target": "T1, Adenosine receptor A2a (Homo sapiens, UniProt P29274)", "T1 sequence (P29274 whole entry)": "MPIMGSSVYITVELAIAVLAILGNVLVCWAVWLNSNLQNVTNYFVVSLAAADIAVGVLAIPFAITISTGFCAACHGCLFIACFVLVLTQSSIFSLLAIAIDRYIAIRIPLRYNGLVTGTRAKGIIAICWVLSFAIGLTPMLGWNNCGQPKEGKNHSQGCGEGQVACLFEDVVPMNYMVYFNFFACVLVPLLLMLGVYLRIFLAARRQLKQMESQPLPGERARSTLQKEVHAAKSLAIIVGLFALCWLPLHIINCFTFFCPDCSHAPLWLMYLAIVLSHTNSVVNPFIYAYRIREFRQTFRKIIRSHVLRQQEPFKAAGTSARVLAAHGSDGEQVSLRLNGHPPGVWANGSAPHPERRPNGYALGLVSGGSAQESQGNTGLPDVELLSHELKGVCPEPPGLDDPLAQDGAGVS", "assay": "Displacement of [3H]CGS21680 from Homo sapiens (human) adenosine A2A receptor expressed in CHO cells at 10 uM", "format": "cell-based", "units": {"inhibition": "%"}, "values": [{"smiles": "O=C1CC(c2ccccc2)Cc2[nH]c(=O)c(C(=O)c3ccccc3)cc21", "note": "(centres undefined)", "inhibition": 16}, {"smiles": "O=C(c1ccccc1)c1cc(C(=O)c2ccccc2)c(=O)[nH]c1-c1ccccc1", "inhibition": 13}]}, {"tested_on": "cAMP phosphodiesterase 3 (Cavia porcellus)", "assay": "Inhibition of Cavia porcellus (guinea pig) PDE3 isolated from heart using [3H]cAMP as substrate at 50 uM by two-step method", "units": {"inhibition": "%"}, "values": [{"smiles": "O=C1CC(c2ccccc2)Cc2[nH]c(=O)c(C(=O)c3ccccc3)cc21", "note": "(centres undefined)", "inhibition": 1.7}, {"smiles": "CC(C)(C)C(=O)c1cc2c([nH]c1=O)CC(c1ccccc1)CC2=O", "note": "(centres undefined)", "inhibition": 3.3}, {"smiles": "O=C(c1ccccc1)c1cc(C(=O)c2ccccc2)c(=O)[nH]c1-c1ccccc1", "inhibition": 5.4}, {"smiles": "O=C1CC(c2ccccc2)Cc2[nH]c(=O)c(S(=O)(=O)c3ccccc3)cc21", "note": "(centres undefined)", "inhibition": 5.7}, {"smiles": "CC(C)(C)C(=O)c1cc2c([nH]c1=O)CCCC2=O", "inhibition": 6.6}]}, {"biological_target": "T1, Adenosine receptor A2a", "assay": "Displacement of [3H]CGS21680 from Homo sapiens (human) adenosine A2A receptor expressed in CHO cells", "format": "cell-based", "units": {"Ki": "µM"}, "values": [{"smiles": "CC(C)(C)C(=O)c1cc2c([nH]c1=O)CC(c1ccccc1)CC2=O", "note": "(centres undefined)", "Ki": 16}, {"smiles": "O=C1CC(c2ccccc2)Cc2[nH]c(=O)c(S(=O)(=O)c3ccccc3)cc21", "note": "(centres undefined)", "Ki": 7}]}, {"biological_target": "T2, Adenosine receptor A1 (Bos taurus) (UniProt P28190)", "T2 sequence (whole entry)": "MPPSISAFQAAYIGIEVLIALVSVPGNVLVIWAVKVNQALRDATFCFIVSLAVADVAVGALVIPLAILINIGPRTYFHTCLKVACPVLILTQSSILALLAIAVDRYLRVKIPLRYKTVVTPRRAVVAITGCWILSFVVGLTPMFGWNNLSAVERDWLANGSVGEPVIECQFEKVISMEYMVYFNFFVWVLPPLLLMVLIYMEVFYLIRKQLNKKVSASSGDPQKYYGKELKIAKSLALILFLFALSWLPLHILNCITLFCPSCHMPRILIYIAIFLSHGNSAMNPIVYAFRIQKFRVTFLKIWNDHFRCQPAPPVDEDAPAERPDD", "assay": "Displacement of [3H]DPCPX from adenosine A1 receptor in Bos taurus (bovine) cortical membrane at 10 uM", "units": {"inhibition": "%"}, "values": [{"smiles": "O=C(c1ccccc1)c1cc(C(=O)c2ccccc2)c(=O)[nH]c1-c1ccccc1", "inhibition": 13}, {"smiles": "CC(C)(C)C(=O)c1cc2c([nH]c1=O)CCCC2=O", "inhibition": 13}]}, {"biological_target": "T3, Adenosine receptor A1 (Homo sapiens) (UniProt P30542)", "T3 sequence (whole entry)": "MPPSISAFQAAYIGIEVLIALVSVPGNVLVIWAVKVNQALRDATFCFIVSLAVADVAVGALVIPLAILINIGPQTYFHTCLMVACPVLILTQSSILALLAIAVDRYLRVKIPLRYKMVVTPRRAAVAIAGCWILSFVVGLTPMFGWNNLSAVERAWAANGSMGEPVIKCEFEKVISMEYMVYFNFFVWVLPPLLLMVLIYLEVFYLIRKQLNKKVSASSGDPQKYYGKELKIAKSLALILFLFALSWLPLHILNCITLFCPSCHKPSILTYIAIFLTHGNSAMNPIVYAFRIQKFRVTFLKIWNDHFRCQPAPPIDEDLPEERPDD", "assay": "Displacement of [3H]DPCPX from Homo sapiens (human) adenosine A1 receptor expressed in CHO cells at 10 uM", "format": "cell-based", "units": {"inhibition": "%"}, "values": [{"smiles": "O=C1CC(c2ccccc2)Cc2[nH]c(=O)c(C(=O)c3ccccc3)cc21", "note": "(centres undefined)", "inhibition": 5}, {"smiles": "CC(C)(C)C(=O)c1cc2c([nH]c1=O)CC(c1ccccc1)CC2=O", "note": "(centres undefined)", "inhibition": 11}, {"smiles": "O=C(c1ccccc1)c1cc(C(=O)c2ccccc2)c(=O)[nH]c1-c1ccccc1", "inhibition": 2}, {"smiles": "CC(C)(C)C(=O)c1cc2c([nH]c1=O)CCCC2=O", "inhibition": 0}]}, {"biological_target": "T4, Adenosine receptor A1 (Bos taurus, UniProt P28190)", "T4 sequence (P28190 whole entry)": "T2 sequence (whole entry)", "assay": "Displacement of [3H]DPCPX from adenosine A1 receptor in Bos taurus (bovine) cortical membrane", "units": {"Ki": "µM"}, "values": [{"smiles": "O=C1CC(c2ccccc2)Cc2[nH]c(=O)c(C(=O)c3ccccc3)cc21", "note": "(centres undefined)", "Ki": 6.5}, {"smiles": "CC(C)(C)C(=O)c1cc2c([nH]c1=O)CC(c1ccccc1)CC2=O", "note": "(centres undefined)", "Ki": 5.1}, {"smiles": "O=C1CC(c2ccccc2)Cc2[nH]c(=O)c(S(=O)(=O)c3ccccc3)cc21", "note": "(centres undefined)", "Ki": 5.8}]}, {"biological_target": "Uncharacterized protein (Bos taurus, UniProt E1BKU0)", "sequence (E1BKU0 whole entry)": "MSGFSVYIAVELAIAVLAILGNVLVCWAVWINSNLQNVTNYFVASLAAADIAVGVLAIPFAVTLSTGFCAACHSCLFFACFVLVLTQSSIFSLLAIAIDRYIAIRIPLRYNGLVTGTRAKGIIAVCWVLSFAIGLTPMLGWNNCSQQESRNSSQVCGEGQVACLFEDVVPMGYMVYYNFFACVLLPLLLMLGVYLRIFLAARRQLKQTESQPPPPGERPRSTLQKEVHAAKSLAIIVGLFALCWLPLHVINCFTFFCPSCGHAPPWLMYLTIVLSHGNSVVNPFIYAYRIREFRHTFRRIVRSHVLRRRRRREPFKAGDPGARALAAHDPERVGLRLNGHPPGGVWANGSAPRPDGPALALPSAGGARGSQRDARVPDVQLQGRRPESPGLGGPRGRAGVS", "assay": "Displacement of [3H]CGS21680 from adenosine A2A receptor in Bos taurus (bovine) cortical membrane", "units": {"Ki": "µM"}, "values": [{"smiles": "CC(C)(C)C(=O)c1cc2c([nH]c1=O)CC(c1ccccc1)CC2=O", "note": "(centres undefined)", "Ki": 15}, {"smiles": "O=C1CC(c2ccccc2)Cc2[nH]c(=O)c(S(=O)(=O)c3ccccc3)cc21", "note": "(centres undefined)", "Ki": 7.9}]}, {"biological_target": "T5, Adenosine receptor A1 (Homo sapiens, UniProt P30542)", "T5 sequence (P30542 whole entry)": "T3 sequence (whole entry)", "assay": "Displacement of [3H]DPCPX from Homo sapiens (human) adenosine A1 receptor expressed in CHO cells", "format": "cell-based", "units": {"Ki": "µM"}, "values": [{"smiles": "O=C1CC(c2ccccc2)Cc2[nH]c(=O)c(S(=O)(=O)c3ccccc3)cc21", "note": "(centres undefined)", "Ki": 7.8}]}, {"biological_target": "T6, Adenosine receptor A3 (Homo sapiens) (UniProt P0DMS8)", "T6 sequence (whole entry)": "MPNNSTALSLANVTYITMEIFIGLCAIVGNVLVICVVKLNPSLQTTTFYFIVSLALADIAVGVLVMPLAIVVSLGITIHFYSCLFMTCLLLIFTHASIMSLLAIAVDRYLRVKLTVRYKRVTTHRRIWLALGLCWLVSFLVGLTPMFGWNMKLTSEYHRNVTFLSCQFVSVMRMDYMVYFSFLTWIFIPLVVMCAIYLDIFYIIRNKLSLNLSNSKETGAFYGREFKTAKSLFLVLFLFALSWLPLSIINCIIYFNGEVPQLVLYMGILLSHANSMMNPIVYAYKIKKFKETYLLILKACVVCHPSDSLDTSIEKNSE", "assay": "Displacement of [125I]AB-MECA from Homo sapiens (human) adenosine A3 receptor expressed in CHO cells at 10 uM", "format": "cell-based", "units": {"inhibition": "%"}, "values": [{"smiles": "O=C1CC(c2ccccc2)Cc2[nH]c(=O)c(C(=O)c3ccccc3)cc21", "note": "(centres undefined)", "inhibition": 0}, {"smiles": "CC(C)(C)C(=O)c1cc2c([nH]c1=O)CC(c1ccccc1)CC2=O", "note": "(centres undefined)", "inhibition": 21}, {"smiles": "O=C(c1ccccc1)c1cc(C(=O)c2ccccc2)c(=O)[nH]c1-c1ccccc1", "inhibition": 2}, {"smiles": "O=C1CC(c2ccccc2)Cc2[nH]c(=O)c(S(=O)(=O)c3ccccc3)cc21", "note": "(centres undefined)", "inhibition": 18}, {"smiles": "CC(C)(C)C(=O)c1cc2c([nH]c1=O)CCCC2=O", "inhibition": 0}]}, {"biological_target": "Uncharacterized protein (Bos taurus) (UniProt E1BKU0)", "sequence (E1BKU0 as listed by the source)": "as the sequence (E1BKU0 whole entry) above", "assay": "Displacement of [3H]CGS21680 from adenosine A2A receptor in Bos taurus (bovine) cortical membrane at 10 uM", "units": {"inhibition": "%"}, "values": [{"smiles": "O=C1CC(c2ccccc2)Cc2[nH]c(=O)c(C(=O)c3ccccc3)cc21", "note": "(centres undefined)", "inhibition": 0}, {"smiles": "O=C(c1ccccc1)c1cc(C(=O)c2ccccc2)c(=O)[nH]c1-c1ccccc1", "inhibition": 8}, {"smiles": "CC(C)(C)C(=O)c1cc2c([nH]c1=O)CCCC2=O", "inhibition": 0}]}, {"tested_on": "cAMP phosphodiesterase 3 (Cavia porcellus)", "assay": "Inhibition of Cavia porcellus (guinea pig) PDE3 isolated from heart using [3H]cAMP as substrate at 100 uM by two-step method", "units": {"inhibition": "%"}, "values": [{"smiles": "O=C1CC(c2ccccc2)Cc2[nH]c(=O)c(C(=O)c3ccccc3)cc21", "note": "(centres undefined)", "inhibition": 7.8}, {"smiles": "CC(C)(C)C(=O)c1cc2c([nH]c1=O)CC(c1ccccc1)CC2=O", "note": "(centres undefined)", "inhibition": 4.2}, {"smiles": "O=C(c1ccccc1)c1cc(C(=O)c2ccccc2)c(=O)[nH]c1-c1ccccc1", "inhibition": 9.6}, {"smiles": "O=C1CC(c2ccccc2)Cc2[nH]c(=O)c(S(=O)(=O)c3ccccc3)cc21", "note": "(centres undefined)", "inhibition": 10.4}, {"smiles": "CC(C)(C)C(=O)c1cc2c([nH]c1=O)CCCC2=O", "inhibition": 6.6}]}, {"tested_on": "cAMP phosphodiesterase 3 (Cavia porcellus)", "assay": "Inhibition of Cavia porcellus (guinea pig) PDE3 isolated from heart using [3H]cAMP as substrate at 10 uM by two-step method", "units": {"inhibition": "%"}, "values": [{"smiles": "O=C1CC(c2ccccc2)Cc2[nH]c(=O)c(C(=O)c3ccccc3)cc21", "note": "(centres undefined)", "inhibition": 5.2}, {"smiles": "CC(C)(C)C(=O)c1cc2c([nH]c1=O)CC(c1ccccc1)CC2=O", "note": "(centres undefined)", "inhibition": 0.8}, {"smiles": "O=C(c1ccccc1)c1cc(C(=O)c2ccccc2)c(=O)[nH]c1-c1ccccc1", "inhibition": 1.76}, {"smiles": "O=C1CC(c2ccccc2)Cc2[nH]c(=O)c(S(=O)(=O)c3ccccc3)cc21", "note": "(centres undefined)", "inhibition": 0}, {"smiles": "CC(C)(C)C(=O)c1cc2c([nH]c1=O)CCCC2=O", "inhibition": 2.5}]}]}
